From patent publication US20230111310A1, “CARBOXYLIC ACID DERIVATIVE-SUBSTITUTED IMINO ARYL COMPOUND, PREPARATION METHOD THEREFOR, HERBICIDAL COMPOSITION AND USE THEREOF” (Qingdao Kingagroot Chemical Compound Co., Ltd., priority 2020, published 2023)

Legend:
Experiment in all cases: Weeding effect in post-emergence stage
Format in all cases: in vivo
Settings in all cases: fresh weight control rate level
[1] = tested on: Alopecurus japonicus
Procedure, shortened: (§1)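 Weeds were treated post-emergence at 2-3 leaves with compound doses from 7.5 up to 500 g/ha, formulated in acetone–Tween 80 with methyl oleate synergist. Efficacy was assessed as growth control after 3 weeks.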

[2] = tested on: Digitaria sanguinalis
Procedure, shortened: as §1

[3] = tested on: Abutilon theophrasti
Procedure, shortened: as §1

[4] = tested on: Eleusine indica
Procedure, shortened: as §1

[5] = tested on: Setaria viridis
Procedure, shortened: as §1

[6] = tested on: Echinochloa crusgalli
Procedure, shortened: as §1

SMILES	Weeding effect in post-emergence stage, Alopecurus japonicus (level) ([1]; Dose 30 g/ha)	Weeding effect in post-emergence stage, Digitaria sanguinalis (level) ([2]; Dose 30 g/ha)	Weeding effect in post-emergence stage, Abutilon theophrasti (level) ([3]; Dose 30 g/ha)	Weeding effect in post-emergence stage, Eleusine indica (level) ([4]; Dose 30 g/ha)	Weeding effect in post-emergence stage, Setaria viridis (level) ([5]; Dose 30 g/ha)	Weeding effect in post-emergence stage, Echinochloa crusgalli (level) ([6]; Dose 30 g/ha)	Weeding effect in post-emergence stage, Alopecurus japonicus (level) ([1]; Dose 15 g/ha)	Weeding effect in post-emergence stage, Digitaria sanguinalis (level) ([2]; Dose 15 g/ha)	Weeding effect in post-emergence stage, Abutilon theophrasti (level) ([3]; Dose 15 g/ha)	Weeding effect in post-emergence stage, Eleusine indica (level) ([4]; Dose 15 g/ha)	Weeding effect in post-emergence stage, Setaria viridis (level) ([5]; Dose 15 g/ha)	Weeding effect in post-emergence stage, Echinochloa crusgalli (level) ([6]; Dose 15 g/ha)	also measured
Cc1cc(C)n(C(=O)C(C)O/N=C/c2cc(-n3c(=O)cc(C(F)(F)F)n(C)c3=O)c(F)cc2Cl)n1 (stereo not drawn) [Compound 424]	5 (Level 5: growth control rate is above 85%)	5 (Level 5: growth control rate is above 85%)	5 (Level 5: growth control rate is above 85%)	5 (Level 5: growth control rate is above 85%)	5 (Level 5: growth control rate is above 85%)	5 (Level 5: growth control rate is above 85%)	–	–	–	–	–	–	–
CCn1c(C(F)(F)F)cc(=O)n(-c2cc(/C=N/OC(C)C(=O)OC)c(Cl)cc2F)c1=O (stereo not drawn) [Compound 426]	–	–	–	–	–	–	–	–	–	–	–	–	Weeding effect in post-emergence stage, Alopecurus japonicus (level) ([1]; Dose 250 g/ha): 5 (Level 5: growth control rate is above 85%); Weeding effect in post-emergence stage, Digitaria sanguinalis (level) ([2]; Dose 250 g/ha): 5 (Level 5: growth control rate is above 85%); Weeding effect in post-emergence stage, Abutilon theophrasti (level) ([3]; Dose 250 g/ha): 5 (Level 5: growth control rate is above 85%); Weeding effect in post-emergence stage, Eleusine indica (level) ([4]; Dose 250 g/ha): 5 (Level 5: growth control rate is above 85%); Weeding effect in post-emergence stage, Setaria viridis (level) ([5]; Dose 250 g/ha): 5 (Level 5: growth control rate is above 85%); Weeding effect in post-emergence stage, Echinochloa crusgalli (level) ([6]; Dose 250 g/ha): 5 (Level 5: growth control rate is above 85%)
COC(=O)C(C)O/N=C/c1cc(-n2c(=O)c(Cl)c(C(F)(F)F)n(C)c2=O)c(F)cc1Cl (stereo not drawn) [Compound 431]	–	–	–	–	–	–	5 (Level 5: growth control rate is above 85%)	5 (Level 5: growth control rate is above 85%)	5 (Level 5: growth control rate is above 85%)	5 (Level 5: growth control rate is above 85%)	5 (Level 5: growth control rate is above 85%)	5 (Level 5: growth control rate is above 85%)	–
COC(=O)C(C)O/N=C/c1cc(N2C(=O)CC(N)(C(F)(F)F)N(C)C2=O)c(F)cc1Cl (stereo not drawn) [Compound 432]	–	–	–	–	–	–	5 (Level 5: growth control rate is above 85%)	5 (Level 5: growth control rate is above 85%)	5 (Level 5: growth control rate is above 85%)	5 (Level 5: growth control rate is above 85%)	5 (Level 5: growth control rate is above 85%)	5 (Level 5: growth control rate is above 85%)	–
CC(O/N=C/c1cc(-n2c(=O)n(C)c(=S)n(C)c2=O)c(F)cc1Cl)C(=O)O (stereo not drawn) [Compound 438]	5 (Level 5: growth control rate is above 85%)	5 (Level 5: growth control rate is above 85%)	5 (Level 5: growth control rate is above 85%)	5 (Level 5: growth control rate is above 85%)	5 (Level 5: growth control rate is above 85%)	5 (Level 5: growth control rate is above 85%)	–	–	–	–	–	–	–
CC(O/N=C/c1cc(-n2c(=O)n(C)c(=S)n(C)c2=O)c(F)cc1Cl)C(=O)OCC(F)(F)F (stereo not drawn) [Compound 439]	5 (Level 5: growth control rate is above 85%)	5 (Level 5: growth control rate is above 85%)	5 (Level 5: growth control rate is above 85%)	5 (Level 5: growth control rate is above 85%)	5 (Level 5: growth control rate is above 85%)	5 (Level 5: growth control rate is above 85%)	–	–	–	–	–	–	–
C#CCCOC(=O)C(C)O/N=C/c1cc(-n2c(=O)cc(C(F)(F)F)n(C)c2=O)c(F)cc1Cl (stereo not drawn) [Compound 442]	–	–	–	–	–	–	5 (Level 5: growth control rate is above 85%)	5 (Level 5: growth control rate is above 85%)	5 (Level 5: growth control rate is above 85%)	5 (Level 5: growth control rate is above 85%)	5 (Level 5: growth control rate is above 85%)	5 (Level 5: growth control rate is above 85%)	–
